# Data published in patent US10206922B2, “Substituted pyrimidines for treatment of chronic cough, neuronal hypersensitivity underlying chronic cough, neuronal hypersensitivity underlying sub-acute cough and neuronal hypersensitivity underlying acute cough” (Afferent Pharmaceuticals. Inc., priority 2013, dated 2019).
# Test system: idiopathic/treatment-resistant chronic cough patients
# Test: double-blind randomized placebo-controlled crossover trial in idiopathic/treatment-resistant chronic cough
# Assay type: in vivo, human
# Conditions: 2 weeks
# Description: Thus, the inventors explored the role of P2X3 receptors in the sensitization of vagal pathways mediating the cough reflex leading to chronic cough (CC). A study was performed to investigate the efficacy of oral administration of Compound 16 in reducing daytime cough in idiopathic/treatment-resistant chronic cough.
# In this study, a double-blind randomized placebo-controlled crossover trial, 24 subjects (19 women, mean age 55 yrs) were randomized into a double blind, placebo-controlled, 2-period, crossover study, of Compound 16, 600 mg bd. Cough was assessed using an ambulatory sound monitoring system at baseline and after 2 weeks of treatment; primary endpoint, daytime objective cough frequency (coughs/hr) (VitaloJAK™); secondary endpoints, cough severity and urge to cough (UTC) visual analogue scales (VAS), global ratings of change and cough quality of life questionnaire (CQLQ).
smiles,measurement,setting,value
"COc1cc(C(C)C)c(Oc2cnc(N)nc2N)cc1S(N)(=O)=O [Compound 16, 5-(2,4-Diamino-pyrimidin-5-yloxy)-4-isopropyl-2-methoxy-benzenesulfonamide]","CQLQ (cough quality of life questionnaire), mean difference vs. placebo","600 mg bd oral, (−2 to −17), p=0.018",−9
same,"UTC (urge to cough) VAS, mean difference vs. placebo","600 mg bd oral, (−2 to −41), p=0.035",−21 mm
same,"cough severity VAS, mean difference vs. placebo","600 mg bd oral, (−10 to −42), p=0.003",−26 mm
same,patients who rated an improved cough (global rating of change),"600 mg bd oral, compared to 2/22 treated with placebo",13/24
same,"daytime coughs/hr (daytime objective cough frequency), mean difference vs. placebo","Compound 16 600 mg bd oral, 24 subjects, 95% CI −50 to −88, p<0.001",−75%
